PMC10041525, “New Dual Inhibitors of Bacterial Topoisomerases with Broad-Spectrum Antibacterial Activity and In Vivo Efficacy against Vancomycin-Intermediate Staphylococcus aureus” (Journal of Medicinal Chemistry, 2023)
Like-named read-outs stand apart in the source and are kept apart here.

How the values were obtained:
S. aureus ATCC 29213 = experiment: MIC broth microdilution (CLSI); assay type: cell-based; settings: Staphylococcus aureus, ATCC29213
Method: (§1) Cation-adjusted Mueller Hinton broth 2 (MHBII) was used for bacterial growth under standard laboratory conditions and for antimicrobial susceptibility tests. MHBII broth was prepared by dissolving 22 g of MHBII powder [containing beef extract (3 g), acid hydrolysate of casein (17.5 g), and starch (1.5 g); Becton Dickinson and Co.] in 1 L of water. To prepare MHBII agar, 14 g of agar (Bacto; Molar Chemicals) was added to 1 L of broth.
(§2) Bacterial strains were inoculated onto MHBII agar plates and grown overnight at 37 °C. Next, three individual colonies from each strain were inoculated into 1 mL of MHBII medium and propagated at 37 °C overnight, with agitation at 250 rpm. For Enterococcus sp., the cells were plated in brain–heart infusion [(BHI) medium] agar plates, and BHI broth was used to determine the MICs. […] Following the dilutions, each well was seeded with 5 × 10^4 bacterial cells (in 100 μL final volume). Each measurement was performed in three parallel replicates, and to avoid possible edge effects in the microwell plates, the outside rows (A, H) were filled with sterile medium. Following the inoculations, the plates were covered with the lids and wrapped in polyethylene plastic bags, to minimize evaporation but to allow O2 transfer. […] After incubation, the OD600 of each well was measured using a microplate reader (Synergy 2; Biotek).

A. baumannii ATCC 17978 = experiment: MIC broth microdilution (CLSI); assay type: cell-based; settings: Acinetobacter baumannii, ATCC17978
Method: as §1, §2

topo IV from E. coli = target: T1, topo IV from E. coli (Escherichia coli, UniProt P20083); experiment: relaxation HTS plate assay; assay type: biochemical
T1 construct: purchased Inspiralis
T1 sequence (P0AFI2 whole entry): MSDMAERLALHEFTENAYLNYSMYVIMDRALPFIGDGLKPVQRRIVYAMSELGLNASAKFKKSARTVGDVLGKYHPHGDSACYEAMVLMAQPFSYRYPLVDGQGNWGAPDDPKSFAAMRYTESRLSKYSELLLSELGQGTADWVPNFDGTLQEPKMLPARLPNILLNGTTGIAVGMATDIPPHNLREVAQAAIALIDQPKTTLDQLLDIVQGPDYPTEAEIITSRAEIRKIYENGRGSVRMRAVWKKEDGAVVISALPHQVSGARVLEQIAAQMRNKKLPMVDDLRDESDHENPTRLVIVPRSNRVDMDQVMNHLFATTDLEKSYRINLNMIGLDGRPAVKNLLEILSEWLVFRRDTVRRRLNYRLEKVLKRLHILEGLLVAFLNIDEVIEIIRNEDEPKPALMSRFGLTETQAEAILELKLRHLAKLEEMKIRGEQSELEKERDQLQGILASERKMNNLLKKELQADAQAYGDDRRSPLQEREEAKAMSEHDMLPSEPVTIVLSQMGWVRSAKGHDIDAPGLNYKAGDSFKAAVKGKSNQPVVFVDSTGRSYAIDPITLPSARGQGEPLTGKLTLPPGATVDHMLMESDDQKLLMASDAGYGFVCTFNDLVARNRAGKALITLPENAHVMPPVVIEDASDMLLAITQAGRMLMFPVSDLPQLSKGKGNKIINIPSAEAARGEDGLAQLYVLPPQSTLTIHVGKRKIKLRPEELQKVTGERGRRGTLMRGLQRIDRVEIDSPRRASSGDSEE
T1 sequence (P20083 whole entry): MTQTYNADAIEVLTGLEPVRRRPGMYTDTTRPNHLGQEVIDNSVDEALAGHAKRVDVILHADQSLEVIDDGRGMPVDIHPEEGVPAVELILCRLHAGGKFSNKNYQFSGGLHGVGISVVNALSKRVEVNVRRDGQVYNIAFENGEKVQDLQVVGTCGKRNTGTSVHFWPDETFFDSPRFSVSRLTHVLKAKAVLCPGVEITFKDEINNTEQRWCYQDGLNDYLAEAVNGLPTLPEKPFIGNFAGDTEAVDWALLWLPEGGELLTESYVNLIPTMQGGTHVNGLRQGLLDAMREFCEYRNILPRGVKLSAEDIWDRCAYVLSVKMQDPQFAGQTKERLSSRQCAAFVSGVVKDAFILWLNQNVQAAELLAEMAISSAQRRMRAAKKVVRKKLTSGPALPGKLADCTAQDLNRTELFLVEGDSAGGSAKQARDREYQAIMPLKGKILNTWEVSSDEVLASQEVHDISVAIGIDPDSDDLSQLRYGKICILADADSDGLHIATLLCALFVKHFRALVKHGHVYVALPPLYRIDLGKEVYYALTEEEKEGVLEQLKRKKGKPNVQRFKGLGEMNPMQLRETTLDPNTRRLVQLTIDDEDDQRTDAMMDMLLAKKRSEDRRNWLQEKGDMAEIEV
Method: (§3) All compounds were tested for their inhibitory activities against DNA gyrase and topo IV from E. coli in supercoiling and relaxation high-throughput plate assays, respectively. Our new series of inhibitors were then tested against a panel of Gram-positive and Gram-negative bacteria.
(§4) Seven concentrations of the inhibitors were used to determine IC50 values which were then calculated with GraphPad Prism 6.0 software. Three independent measurements were performed to determine IC50 values, and mean values are reported as the final result.

DNA gyrase from E. coli = target: T2, DNA gyrase from E. coli (Escherichia coli, UniProt P0AES6); experiment: supercoiling HTS plate assay; assay type: biochemical; settings: IC50 [nM] E. coli DNA gyrase
T2 construct: purchased Inspiralis
Method: as §3, §4

E. coli ATCC 25922 = experiment: MIC broth microdilution (CLSI); assay type: cell-based; settings: Escherichia coli, ATCC25922
Method: as §1, with “MICs (Tables 1 and S1–S3) were determined with a standard serial broth microdilution technique according to Clinical and Laboratory Standards Institute (CLSI) guidelines.[45] Cation-adjusted” for “Cation-adjusted”
(§5) Bacterial strains were inoculated onto MHBII agar plates and grown overnight at 37 °C. Next, three individual colonies from each strain were inoculated into 1 mL of MHBII medium and propagated at 37 °C overnight, with agitation at 250 rpm. For Enterococcus sp., the cells were plated in brain–heart infusion [(BHI) medium] agar plates, and BHI broth was used to determine the MICs. […] The highest final DMSO concentration in the experiments was 0.64% (in the case of the 64 μg/mL concentration of the inhibitor). Following the dilutions, each well was seeded with 5 × 10^4 bacterial cells (in 100 μL final volume). Each measurement was performed in three parallel replicates, and to avoid possible edge effects in the microwell plates, the outside rows (A, H) were filled with sterile medium. Following the inoculations, the plates were covered with the lids and wrapped in polyethylene plastic bags, to minimize evaporation but to allow O2 transfer. The plates were incubated at 37 °C under continuous shaking at 150 rpm for 18 h. After incubation, the OD600 of each well was measured using a microplate reader (Synergy 2; Biotek). The MICs were defined as the antibiotic concentrations which inhibited the growth of the bacterial cultures; that is, the drug concentration where the average OD600 increment of the three technical replicates was below 1.5-fold the background OD increment.

A. baumannii ATCC 19606 = experiment: MIC broth microdilution (CLSI); assay type: cell-based; settings: Acinetobacter baumannii, ATCC19606
Method: as §1, with “MICs (Tables 1 and S1–S3) were determined with a standard serial broth microdilution technique according to Clinical and Laboratory Standards Institute (CLSI) guidelines.[45] Cation-adjusted” for “Cation-adjusted”
as §5
(§6) cMIC, minimum inhibitory concentration
(§7) Bacterial strains that were used: S. aureus ATCC 29213, S. aureus (MRSA) ATCC 43300, S. aureus (VISA) ATCC 700699, E. faecalis ATCC 29212, E. faecium ATCC 700221,
(§8) E. coli ATCC 25922, P. aeruginosa ATCC 27853 (PAO1 for compounds 7l, 8b, 14), A. baumannii ATCC 17978 (ATCC 19606 for compounds 7l, 8b, 14), K. pneumoniae ATCC
(§9) Measurements were performed according to the Clinical and Laboratory Standards Institute guidelines, with three independent measurements.

P. aeruginosa PAO1 = experiment: MIC broth microdilution (CLSI); assay type: cell-based; settings: Pseudomonas aeruginosa; PAO1 used for 7l, 8b, 14, 16b, 16c
Method: as §1, with “MICs (Tables 1 and S1–S3) were determined with a standard serial broth microdilution technique according to Clinical and Laboratory Standards Institute (CLSI) guidelines.[45] Cation-adjusted” for “Cation-adjusted”
as §5, §6, §7, §8, §9

K. pneumoniae ATCC 13883 = experiment: MIC broth microdilution (CLSI); assay type: cell-based; settings: Klebsiella pneumoniae, ATCC13883; ATCC 13883 used for 7l, 8b, 14, 16b, 16c
Method: as §1, with “MICs (Tables 1 and S1–S3) were determined with a standard serial broth microdilution technique according to Clinical and Laboratory Standards Institute (CLSI) guidelines.[45] Cation-adjusted” for “Cation-adjusted”
as §5, §6, §7, §8, §9

in vitro = in vitro ADME, mouse; settings: male, CD-1, mouse; for fraction unbound at 4 h, 5 μM: plasma (pooled)
Method: The PPB studies were performed by Selvita d.o.o. (Zagreb, Croatia) in mouse plasma (CD-1 male, pooled, commercially obtained from BioIVT) via equilibrium dialysis. Compounds were assayed at 5 μM (0.5% DMSO) in two replicates, and incubation time was 4 h at 37 °C. Samples were taken at 0 min and 4 h. Aliquots from both buffer and plasma compartment matrix were matched and mixed with 6 volumes of STOP solution (acetonitrile/methanol (2:1) + internal standard – diclofenac) and analyzed by LC–MS/MS. Assay controls were caffeine (low), verapamil (moderate binding), and nicardipine (very high binding), and protein contamination was checked.

[1] = system: Enterococcus faecalis ATCC 29212; experiment: MIC broth microdilution (CLSI); assay type: cell-based, E. faecalis
Method: as §1, with “MICs (Tables 1 and S1–S3) were determined with a standard serial broth microdilution technique according to Clinical and Laboratory Standards Institute (CLSI) guidelines.[45] Cation-adjusted” for “Cation-adjusted”
as §5

E. faecium ATCC 700221 = experiment: MIC broth microdilution (CLSI); assay type: cell-based; settings: Enterococcus faecium, ATCC700221
Method: as §1, with “MICs (Tables 1 and S1–S3) were determined with a standard serial broth microdilution technique according to Clinical and Laboratory Standards Institute (CLSI) guidelines.[45] Cation-adjusted” for “Cation-adjusted”
as §5

P. aeruginosa ATCC 27853 = experiment: MIC broth microdilution (CLSI); assay type: cell-based; settings: Pseudomonas aeruginosa, ATCC27853
Method: as §1, with “MICs (Tables 1 and S1–S3) were determined with a standard serial broth microdilution technique according to Clinical and Laboratory Standards Institute (CLSI) guidelines.[45] Cation-adjusted” for “Cation-adjusted”
as §5

K. pneumoniae ATCC 10031 = experiment: MIC broth microdilution (CLSI); assay type: cell-based; settings: Klebsiella pneumoniae, ATCC10031
Method: as §1, with “MICs (Tables 1 and S1–S3) were determined with a standard serial broth microdilution technique according to Clinical and Laboratory Standards Institute (CLSI) guidelines.[45] Cation-adjusted” for “Cation-adjusted”
as §5

[2] = system: S. aureus (VISA) ATCC 700699; experiment: MIC broth microdilution (CLSI); assay type: cell-based
Method: as §1, with “MICs (Tables 1 and S1–S3) were determined with a standard serial broth microdilution technique according to Clinical and Laboratory Standards Institute (CLSI) guidelines.[45] Cation-adjusted” for “Cation-adjusted”
as §5

[3] = system: S. aureus (MRSA) ATCC 43300; experiment: MIC broth microdilution (CLSI); assay type: cell-based; settings: Staphylococcus aureus
Method: as §1, with “MICs (Tables 1 and S1–S3) were determined with a standard serial broth microdilution technique according to Clinical and Laboratory Standards Institute (CLSI) guidelines.[45] Cation-adjusted” for “Cation-adjusted”
as §5

[4] = system: Enterobacter cloacae spp. cloacae ATCC 13047; experiment: MIC broth microdilution (CLSI); assay type: cell-based
Method: as §1, with “MICs (Tables 1 and S1–S3) were determined with a standard serial broth microdilution technique according to Clinical and Laboratory Standards Institute (CLSI) guidelines.[45] Cation-adjusted” for “Cation-adjusted”
as §5

[5] = mitochondrial toxicity glu/gal assay; assay type: cell-based; settings: human, 0.1 µM, read-out: cell viability (ATP), % of control
Method: HepG2 cells were seeded in two 96-well plates at a density of 50,000 cells per well in 100 μL of growth medium. For the first plate, the growth medium contained glucose and for the second plate, it contained galactose. Cells were incubated overnight in a 5% CO2 atmosphere at 37 °C and allowed to attach onto the wells. […] The medium contained positive control (Rotenone). […] Luminescence was measured with Tecan Infinite 200 pro luminometer, and the values from each well treated with compound were compared to the values given by the negative control (medium only). The inhibition of mitochondrial function was determined by comparing ATP levels in galactose and glucose exposed cells. […]

[6] = read-out: MIC [µg/mL](S. aureus ATCC 29213)
[7] = read-out: MIC [µg/mL] (A. baumannii ATCC 17978)
[8] = ATCC 19606 used for 7l, 8b, 14, 16b, 16c, read-out: MIC
[9] = read-out: MIC [µg/mL] (A. baumannii ATCC 19606 for compounds 7l, 8b, 14)

SMILES | MIC (S. aureus ATCC 29213; read-out: MIC) [µg/mL] | MIC (S. aureus ATCC 29213; [6]) [µg/mL] | MIC (A. baumannii ATCC 17978; [7]) [µg/mL] | IC50 (topo IV from E. coli; read-out: IC50) [nM] | IC50 (DNA gyrase from E. coli) [nM] | MIC (E. coli ATCC 25922; read-out: MIC) [µg/mL] | MIC (A. baumannii ATCC 19606; [8]) [µg/mL] | MIC (P. aeruginosa PAO1) [µg/mL] | MIC (K. pneumoniae ATCC 13883) [µg/mL] | IC50 (topo IV from E. coli; IC50 [nM] E. coli TopoIV) [nM] | MIC (A. baumannii ATCC 19606; [9]) [µg/mL] | also measured
Cc1[nH]c(C(=O)Nc2nc3c(N4CCOCC4)cc(C(=O)O)cc3s2)cc1C#N [16c, 2-(4-Cyano-5-methyl-1H-pyrrole-2-carboxamido)-4-morpholinobenzo[d]thiazole-6-carboxylic Acid] | > 64 | > 64 | > 64 | 440 | 32 ± 9 | > 64 | > 64 | > 64 | > 64 |  |  | 
Cc1[nH]c(C(=O)Nc2nc3c(OCc4ccccc4)cc(C(=O)O)cc3s2)c(Cl)c1Cl [E] |  |  |  |  |  |  |  |  |  |  |  | MIC (S. aureus ATCC 29213): 0.5 µg/mL; MIC (A. baumannii ATCC 17978): 2 µg/mL; fraction unbound at 4 h, 5 μM (in vitro; mouse plasma, 5 µM, 4 h, read-out: fu, fraction unbound): < 0.001; fraction unbound at 4 h, 5 μM (in vitro; read-out: plasma protein binding (PPB)): < 0.01; recovery at 4 h, 5 μM (in vitro; plasma protein binding assay): 94.1%; MIC [1]: <0.03125 µg/mL; MIC ([1]; Enterococcus faecalis, ATCC29212): < 0.0312 µg/mL; MIC (E. faecium ATCC 700221): 0.0625 µg/mL; MIC (P. aeruginosa ATCC 27853): 2 µg/mL; MIC (K. pneumoniae ATCC 10031): 4 µg/mL; MIC [2]: <0.03125 µg/mL; MIC ([2]; Staphylococcus aureus): < 0.0312 µg/mL; MIC [3]: 0.0625 µg/mL; MIC [4]: >64 µg/mL; MIC ([4]; Enterobacter cloacae, ATCC13047): > 64 µg/mL; MIC (E. coli ATCC 25922): 16 µg/mL
Cc1[nH]c(C(=O)Nc2nc3c(CN4CCOCC4)cc(C(=O)O)cc3s2)c(Cl)c1Cl.Cl [compound 14, 4-((6-Carboxy-2-(3,4-dichloro-5-methyl-1H-pyrrole-2-carboxamido)benzo[d]thiazol-4-yl)methyl)morpholin-4-ium Chloride] | 16 | 16 |  |  | 13 ± 5 | > 64 | > 64 | > 64 | 64 | 460 ± 120 | > 64 | 
C=C(C)[C@H]1Cc2c(ccc3c2O[C@@H]2COc4cc(OC)c(OC)cc4[C@@H]2C3=O)O1 [Rot, Rotenone] |  |  |  |  |  |  |  |  |  |  |  | viability at 24 h, 0.1 µM ([5]; galactose): 1%; viability at 24 h, 0.1 µM ([5]; glucose): 64%
Cc1[nH]c(C(=O)Nc2nc3c(N4CCNCC4)cc(C(=O)O)cc3s2)c(Cl)c1Cl.Cl [8b, 4-(6-Carboxy-2-(3,4-dichloro-5-methyl-1H-pyrrole-2-carboxamido)benzo[d]thiazol-4-yl)piperazin-1-ium Chloride] | 32 | 32 |  |  | < 10 | 16 | 64 | > 64 | 64 | 120 ± 15 | 64 | 
Cc1[nH]c(C(=O)Nc2nc3c(N4CCCC4)cc(C(=O)O)cc3s2)c(Cl)c1Cl [7j, 2-(3,4-Dichloro-5-methyl-1H-pyrrole-2-carboxamido)-4-(pyrrolidin-1-yl)benzo[d]thiazole-6-carboxylic Acid] | 0.25 | 0.25 | 4 | < 100 | < 10 | 16 |  |  |  |  |  | MIC (A. baumannii ATCC 17978; read-out: MIC): 4 µg/mL; MIC ([1]; Enterococcus faecalis, ATCC29212, read-out: MIC): 0.125 µg/mL; IC50 (topo IV from E. coli; read-out: IC50 [nM] E. coli TopoIV): 68 ± 16 nM; MIC (E. faecium ATCC 700221; read-out: MIC): 0.25 µg/mL; MIC (P. aeruginosa ATCC 27853; read-out: MIC): 4 µg/mL; MIC (K. pneumoniae ATCC 10031; read-out: MIC): 8 µg/mL; MIC ([2]; Staphylococcus aureus, read-out: MIC): 0.0625 µg/mL; MIC ([3]; read-out: MIC): 0.125 µg/mL; MIC ([3]; read-out: MIC [µg/mL](S. aureus MRSA ATCC4330)): 0.125 µg/mL; MIC ([4]; Enterobacter cloacae, ATCC13047, read-out: MIC): > 32 µg/mL
